Tests used:
Experiment in all cases: relative viability (nuclei count vs DMSO), 5 days (fraction); higher = more cells survive
[1] = compound: C/C(=N\NC(=S)N1CCC1)/C2=CC=CC=N2 + CC1(C)CCC(c2ccc(Cl)cc2)=C(CN2CCN(c3ccc(C(=O)NS(=O)(=O)c4ccc(N[C@H](CCN5CCOCC5)CSc5ccccc5)c(S(=O)(=O)C(F)(F)F)c4)cc3)CC2)C1 [Navitoclax] (partner 0.5 µM)
Outline: (§1)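 Relative viability equals treated-well nuclei counts divided by vehicle-well nuclei counts. Counts came from 4× images of lung cancer cell lines grown in 1536-well plates for 5 days after pin-tool dosing on the day after seeding. Dosing used one drug alone or a fixed anchor-drug dose plus five library-drug doses (not always all listed) in √10 steps, and values are medians of duplicate plates.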

[2] = compound: C/C(=N\NC(=S)N1CCC1)/C2=CC=CC=N2 + CC(C)C[C@H](NC(=O)[C@H](Cc1ccccc1)NC(=O)c1cnccn1)B(O)O [Bortezomib] (partner 0.002 µM)
Outline: as §1

[3] = compound: C/C(=N\NC(=S)N1CCC1)/C2=CC=CC=N2 + Cc1nc(Nc2ncc(C(=O)Nc3c(C)cccc3Cl)s2)cc(N2CCN(CCO)CC2)n1 [Dasatinib] (partner 0.075 µM)
Outline: as §1

[4] = compound: C/C(=N\NC(=S)N1CCC1)/C2=CC=CC=N2 + CCNC(=O)c1noc(-c2cc(C(C)C)c(O)cc2O)c1-c1ccc(CN2CCOCC2)cc1 [Luminespib] (partner 0.01 µM)
Outline: as §1

| Cell Line | relative viability ([1]; first compound 0.05 µM) | relative viability ([1]; first compound 0.1581 µM) | relative viability ([1]; first compound 0.5 µM) | relative viability ([1]; first compound 1.581 µM) | relative viability ([1]; first compound 5 µM) | relative viability ([2]; first compound 0.05 µM) | relative viability ([2]; first compound 0.1581 µM) | relative viability ([2]; first compound 0.5 µM) | relative viability ([2]; first compound 1.581 µM) | relative viability ([2]; first compound 5 µM) | relative viability ([3]; first compound 0.05 µM) | relative viability ([3]; first compound 0.1581 µM) | relative viability ([3]; first compound 0.5 µM) | relative viability ([3]; first compound 1.581 µM) | relative viability ([3]; first compound 5 µM) | relative viability ([4]; first compound 0.05 µM) | relative viability ([4]; first compound 0.1581 µM) | relative viability ([4]; first compound 0.5 µM) | relative viability ([4]; first compound 1.581 µM) | relative viability ([4]; first compound 5 µM) |
| --- | --- | --- | --- | --- | --- | --- | --- | --- | --- | --- | --- | --- | --- | --- | --- | --- | --- | --- | --- | --- |
| NCI-H23 | 0.139 | 0.186 | 0.117 | 0.135 | 0.171 | 0.108 | 0.148 | 0.171 | 0.105 | 0.136 | 0.128 | 0.142 | 0.177 | 0.121 | 0.142 | 0.151 | 0.149 | 0.204 | 0.206 | 0.204 |
| NCI-H322M | 0.268 | 1.21 | 0.208 | 0.281 | 0.277 | 0.176 | 0.295 | 0.296 | 0.287 | 0.324 | 0.183 | 0.309 | 0.263 | 0.247 | 0.282 | 0.314 | 0.327 | 0.289 | 0.263 | 0.309 |
| NCI-H441 | 0.374 | 0.188 | 0.205 | 0.174 | 0.15 | 0.162 | 0.153 | 0.171 | 0.146 | 0.127 | 0.143 | 0.15 | 0.159 | 0.108 | 0.156 | 0.205 | 0.158 | 0.251 | 0.181 | 0.164 |
| NCI-H460 | 0.0277 | 0.0183 | 0.0198 | 0.0147 | 0.0062 | 0.0169 | 0.0164 | 0.0256 | 0.0129 | 0.0105 | 0.0259 | 0.0347 | 0.0269 | 0.0294 | 0.0151 | 0.0193 | 0.0163 | 0.025 | 0.0173 | 0.0171 |
| NCI-H520 | 0.19 | 0.212 | 0.301 | 0.151 | 0.166 | 0.137 | 0.167 | 0.126 | 0.102 | 0.166 | 0.175 | 0.117 | 0.162 | 0.178 | 0.166 | 0.194 | 0.21 | 0.199 | 0.21 | 0.235 |
| NCI-H596 | 0.66 | 0.38 | 0.226 | 0.274 | 0.161 | 0.518 | 0.309 | 0.237 | 0.233 | 0.276 | 0.234 | 0.29 | 0.245 | 0.224 | 0.225 | 0.433 | 0.673 | 0.246 | 0.222 | 0.235 |
| NCI-H647 | 0.133 | 0.129 | 0.117 | 0.123 | 0.116 | 0.165 | 0.105 | 0.0582 | 0.072 | 0.0851 | 0.0543 | 0.0651 | 0.0453 | 0.051 | 0.0532 | 0.0621 | 0.051 | 0.0851 | 0.0853 | 0.0804 |
| NCI-H727 | 0.109 | 0.0812 | 0.098 | 0.189 | 0.257 | 0.171 | 0.214 | 0.156 | 0.174 | 0.184 | 0.204 | 0.24 | 0.236 | 0.242 | 0.274 | 0.249 | 0.337 | 0.294 | 0.346 | 0.34 |
